Results from patent US20260034192A1 (University of Saskatchewan, priority 2022, published 2026).
“And” between values parts separate entries of the source, which are not always exact repeats. Equal entries are not always repeated. Square brackets hold non-standard residues; d marks the D form. Peptide text beside a SMILES is read from it. dPhe(4-Cl) = N[C@H](Cc1ccc(Cl)cc1)C(=O)O; d2Nal = N[C@H](Cc1ccc2ccccc2c1)C(=O)O; dCit = NC(=O)NCCC[C@@H](N)C(=O)O; d3Pal = N[C@H](Cc1cccnc1)C(=O)O

Key:
[1] = after single injection of 0.25 mg in women; cited from earlier work
[2] = test system: Hereford crossbred heifers; assay: Cetrorelix pre-treatment before kisspeptin-10 in low-progesterone heifer model (Example 1); format: in vivo, cattle
Method: Methods: The human Kisspeptin-10 (hKP-10) peptide (YNWNSFGLRF-NH2; SEQ ID NO: 1) was custom synthetized at >95% of purity (MW: 1318.44 g/mol) by GenScript USA Inc, Piscataway, NJ, USA. The sequence is based on the predicted C-terminal region (112-121-NH2) of human metastin (Gen Bank accession #AY117143) and has been previously used in cattle. The peptide was previously tested for solubility and was dissolved in ultrapure water at 10 mg/mL.
The heifers were maintained in outdoor pens at the University of Saskatchewan Goodale Research Farm (52° north and 106° west). Heifers were fed barley silage and had hay and water ad libitum. A mineral salt block was available to heifers throughout the study period. All procedures were performed in accordance with Canadian Council on Animal Care and were approved by the University of Saskatchewan Protocol Review Committee.
Immediately after ultrasound examination, heifers were given PGF2a twice at an interval of 12-hours. The low-progesterone bovine model described previously (Leonardi et al. 2019) was used to test the hypothesis. Briefly, the ovaries were examined daily by ultrasonography to detect ovulation. Three days after ovulation, follicles ≥5 mm in diameter in both ovaries were ablated by transvaginal ultrasound-guided follicle aspiration, inducing the emergence of new follicular wave 1.5 days after the procedure (Bergfelt et al. 1994). After follicular ablation, a progesterone device was placed in the vagina (CIDR; Zoetis). The day of wave emergence (Day 0) was defined as the day when the follicle of wave was first recorded (4 to 5 mm in diameter) with concurrent increase in diameter. Heifers were given PGF2α im on Days 3.5 and 4 (i.e., 8 and 8.5 days after ovulation) to cause luteolysis, however, the CIDR devices were left in place until Day 12 to maintain a low-progesterone milieu sufficient to prevent spontaneous ovulation. On Day 6, an indwelling jugular catheter was placed as described (Bergfelt et al. 1997) and heifers were assigned randomly to three groups (n=5 per group): 1) 3 iv doses of 15 mg human kisspeptin-10 at 1 h intervals (Kp10 group), 2) pretreatment with single im dose of Cetrorelix acetate (20 μg/Kg of body weight, GnRH antagonist—Sigma #C5249 diluted in 5% D-Manitol w/v, Sigma #M4125) followed 3 h later with 3 iv doses of 15 mg human kisspeptin-10 at 1 h intervals (Cetrorelix group), or 3) 3 iv doses of normal saline at 1 h intervals (Control group). Following treatment (on Day 6), ovarian ultrasound examinations were performed daily until the end of the experiment to detect ovulation of the extant dominant follicle (i.e., dominant follicle present at the time of treatment) or of the dominant follicle originating from a subsequent wave. The progesterone device was withdrawn on Day 12 (i.e., thirteen days after insertion) and ultrasound examinations were continued until ovulation was detected.
Blood samples and hormone assays: Serial blood samples on the day of treatment were collected at 15 minute intervals from −30 to 150 min (0 min=time of first hKP-10 or saline injection) using the indwelling jugular catheter. All blood samples were collected in heparinized tubes (Vacutainer, BD, Franklin Lakes NJ, USA). Immediately after sampling, tubes were centrifuged at 1,500×g for 15 min, and plasma was separated and stored at −20° C.
The plasma samples from both experiments were analyzed for LH and progesterone concentration at the University of Wisconsin (Madison, WI, USA) in Dr O. J. Ginther's Research Laboratory. Plasma LH concentrations were measured with a validated radioimmunoassay for cattle (Bolt et al. 1990) with modifications as reported Ginther et al. 1999). Briefly, LH concentrations were measured in duplicate using USDA-bLH-B-6 for ^125I-iodination and for preparing reference standards, and USDA-309-684P as the primary antibody (National Hormone and Pituitary Program, Torrance, CA, USA). […]

[3] = Day 6 of wave, low progesterone, Kp10 3 x 15 mg iv, Cetrorelix 20 μg/Kg im 3 h before Kp10
[4] = Kp10 3 x 15 mg iv, Cetrorelix 20 μg/Kg im 3 h before Kp10

CC(=O)N[C@H](Cc1ccc2ccccc2c1)C(=O)N[C@H](Cc1ccc(Cl)cc1)C(=O)N[C@H](Cc1cccnc1)C(=O)N[C@@H](CO)C(=O)N[C@@H](Cc1ccc(O)cc1)C(=O)N[C@H](CCCNC(N)=O)C(=O)N[C@@H](CC(C)C)C(=O)N[C@@H](CCCNC(=N)N)C(=O)N1CCC[C@H]1C(=O)N[C@H](C)C(N)=O [Cetrorelix, N-acetyl-3-(2-naphthyl)-D-alanyl-4-chloro-D-phenylalanyl-3-(3-pyridyl)-D-alanyl-L-seryl-L-tyrosyl-D-citrullyl-L-leucyl-L-arginyl-L-prolyl-D-alaninamide] (Ac-[d2Nal][dPhe(4-Cl)][d3Pal]SY[dCit]LRP[dA]-NH2)
Elimination half-life [1]: 5 h
Dominant follicle diameter 24 h after treatment [2, 3]: 13.38 ± 0.55 mm
Dominant follicle diameter 48 h after treatment [2, 3]: 12.91 ± 0.55 mm
Dominant follicle diameter at time of treatment [2, 3]: 13.01 ± 0.68 mm
Emergence of a new follicular wave after treatment ([2]; Day 6 of wave, low progesterone, Kp10 3 x 15 mg iv, Cetrorelix single im 20 μg/Kg 3 h before Kp10): 3.40 ± 0.75 days and 3.4 days
Emergence of a new follicular wave after treatment ([2]; Day 6 of wave, low progesterone, Kp10 3 x 15 mg iv, Cetrorelix single im 20 μg/Kg 3 h before Kp10, listed as Cetrorelix acetate): about 3.40±0.75 days
Day of ovulation of new dominant follicles after CIDR removal (Day 12) ([2]; Day of follicular wave): 15
Heifers in which a new wave emergence occurred [2, 4]: 5 of 5
Number of ovulations after CIDR removal on Day 12: Extant dominant follicle [2, 4]: 0/5
Number of ovulations after CIDR removal on Day 12: New dominant follicle [2, 4]: 5/5
Plasma LH concentration / kisspeptin-induced LH surge [2, 4]: suppressed the kisspeptin-induced LH surge
Time by which the dominant follicle entered the regression phase ([2]; after kisspeptin and GnRH antagonist treatment): ≤ 72 h
